Experimental data as given in patent US20010049372A1, “Antiviral nucleoside analogues” (BioChem Pharma Inc., priority 1998, published 2001).
Read-outs that look alike come from different tables or passages of the source.

Experiments:
[1] = Cellular toxicity by WST-1 staining; assay type: cell-based; conditions: human, CBMCs, Table 4, day 7, read-out: CC50 (μM) WST-1 CBMC
Experimental: (§1) The cellular toxicity of the compounds were assessed on various cells using [^3H]-thymidine uptake. Various cells, including Molt-4, HT1080, DU-145, HepG-2 and HSF, were plated at a concentration of 1-2×10^3 cells per well (96 well plates). After a 24 hr incubation period, 10-fold serial diluted compounds (b 10^−4 M to 10^−10 M) were added to the culture medium and the cells were further incubated for 72 hrs. [^3H]-thymidine was added during the final 18 hr incubation period. After incubation with the [^3H]-thymidine, the cells were washed once with PBS, treated with trypsin if the cells were adherent, and then resuspended in water (hypotonic lysing of cells). The cellular extract was applied directly to a Tomtec Harvester 96. Using this instrument the extracted DNA is adsorbed onto filters, washed and the incorporated [^3H]-thymidine is then counted. The 50% cytotoxic concentration (CC50) was determined by comparing the radioactive counts per minute of the samples in the presence of the compounds against the control. The cellular toxicity of the compounds was also tested by WST-1 staining through assessing proliferation of MT-2, H9, Jurkat, U937, and CBMCs. The established cell lines were cultured in RPMI medium in 96-well plates at a density of 5×10^4 cells/well while CBMCs were plated at a concentration of 0.5×10^6/well. A 10-fold serial diluted (10^−4-10^−7 M) compound was added at day zero. At day 4, the cells were passaged by changing half medium containing appropriately diluted compound. The cell activities were assessed at day 7 using the WST-1 reagent (Boehringer Mannheim) following the protocol provided by the supplier.
(§2) In the WST-1 staining experiments, cell lines were cultured in RPMI medium in 96-well plates at a density of 5×10^4 cells/well. CBMCs were plated at a concentration of 0.5×10^6/well. Compounds (10^−4-10^−7 M) were added at day zero. Cell viability was assessed on day 7 using the WST-1 reagent (Boehringer Mannheim) following the protocol provided by the supplier.

PBMCs = experiment: Cellular toxicity by [3H]-thymidine uptake; assay type: cell-based, human; conditions: Table 4, 72 hrs
Experimental: (§3) Cellular toxicity was assessed by [^3H]thymidine uptake (de Muys et al. 1999) and WST-1 staining. In the [^3H]thymidine uptake experiments, Molt-4, HT1080, DU-145, HepG2 and HSF, were plated at a concentration of 1-2×10^3 cells per well (96 well plates). PHA-stimulated PBMCs were cultured at a concentration of 4×10^4 cells per well. Following a 24 hr pre-incubation period, test compounds (10^−4 M to 10^−10 M) were added and the cells were incubated for an additional 72 hrs. [^3H]thymidine was added during the final 18 hr incubation period. The cells were then washed once with PBS, treated with trypsin if the cells were adherent, and resuspended in water (hypotonic lysing of cells). The cellular extract was applied directly to a Tomtec Harvester 96. The 50% cytotoxic concentration (CC50) was determined by comparing the radioactive counts per minute obtained from drug-tested samples to those obtained from the control (untreated) cells.

[2] = Cellular toxicity by [3H]-thymidine uptake; assay type: cell-based; conditions: human
Experimental: as §1, §3

[3] = Body weight gaining effect in mice; assay type: in vivo; conditions: intraperitoneally, mice (CDI, adult, male), 50 mg/kg/day for 5 days
[4] = Preliminary pharmacokinetic study in male adult rats; assay type: in vivo; conditions: rat
Experimental: The bioavailability of the compounds were evaluated in male adult rats dosed intravenously through the tail vein (5 mg/kg) and orally (20 mg/kg). The plasma samples were collected at 2, 5, 15, 30, 60, 90, 120 and 240 minutes after intravenous dosing and 5, 15, 30, 60, 90, 120, 240 and 360 minutes after oral dosing.
Blood samples (1 ml) were collected from the rat tails into a vacutainer containing EDTA (3 ml) for both iv and po administrations. Plasma samples were prepared by centrifugation at 2000 ×g for 15 minutes at 4° C.
(§4) Plasma samples (diluted to 1 ml with water) were loaded onto the Abselut Nexus sorbent (# 1210-3100 ) and drawn through under low vacuum (approximately 5′′ Hg). One milliliter of deionized water was added to the sorbent and drawn through under vacuum. The extraction column was dried for 1 minute using a high vacuum (>10′′ Hg). One milliliter of methanol was added to the Abselut Nexus column and the eluent was collected at 1-2 ml/min. The eluent was evaporated to dryness using a Speed Vac, and the samples were reconstituted in 120 μl H2O; 100 μl was used for injection.

CBMCs = experiment: Cellular toxicity by WST-1 staining; assay type: cell-based; conditions: Table 4, day 7, read-out: CC50 (μM) WST-1 CBMC
Experimental: as §1, §2

DU-145 = experiment: Cellular toxicity by [3H]-thymidine uptake; assay type: cell-based; conditions: Table 4, 72 hrs
Experimental: as §1, §3

HSF = experiment: Cellular toxicity by [3H]-thymidine uptake; assay type: cell-based; conditions: Table 4, 72 hrs
Experimental: as §1, §3

HT1080 = experiment: Cellular toxicity by [3H]-thymidine uptake; assay type: cell-based; conditions: Table 4, 72 hrs
Experimental: as §1, §3

HepG-2 = experiment: Cellular toxicity by [3H]-thymidine uptake; assay type: cell-based; conditions: Table 4, 72 hrs
Experimental: as §1, §3

Molt-4 = experiment: Cellular toxicity by [3H]-thymidine uptake; assay type: cell-based; conditions: Table 4, 72 hrs
Experimental: as §1, §3

[5] = Pharmacokinetic study in male and female rats (single dose iv or po); assay type: in vivo, rat; conditions: parameters of DAPD & DXG after administration of DAPD
Experimental: Compound A(−), DAPD, and DXG were administrated as a single dose, either intravenously through the jugular vein at 10 mg/kg or orally at 20, 125, 500, 1000 or 2000 mg/kg. All rats were fasted for 12 hours prior to po dosing treatment. The vehicle used for both iv and po administrations was 0.1% carboxymethylcellulose and 0.1% Tween 80 in distilled water, acidified to pH 3.15 with 1N HCl. Blood samples were taken from rats at the times shown in the schedule below for all oral dosing. From a total of 10 rats for each administration, seven time points were taken for the intravenous through the jugular vein dosing (2, 5, 15, 30, 60, 120 and 240 min) and for the oral dosing (5-360 min) at 20 mg/kg, whereas two additional time points at 480 and 1440 min were taken for the oral doses of 125-2000 mg/kg. As a result, each time point was in quadruplicate, except for the 1440 minute time point when blood samples were taken through the jugular vein from all the rats prior to being euthanized.
Blood samples (1 ml) were collected from the rat tails into a vacutainer containing EDTA (3 ml) for both iv and po administrations. Plasma samples were prepared by centrifugation at 2000×g for 15 minutes at 4° C.
as §4, with “(#1210-3100)” for “(# 1210-3100 )”

HIV-1IIIB = experiment: Anti-HIV-1 antiviral assay with HIV-1IIIB in various cell types (RT activity); assay type: cell-based; conditions: HIV-1IIIB, MT-2 cells, determined by RT activity; read-out: EC50 (μM) ± S.D. in MT-2 cells
Experimental: ANTIVIRAL ASSAYS. The anti-HIV-1 activity of the compound A (−) were assessed by employing HIV-1IIIB in a variety of cell types as previously described (Gu et al., 1992, 1994, 1999; Rando et al., 1995; Salomon et al., 1994). Briefly, cells were incubated with virus at a multiplicity of infection (MOI) of 0.005 for T cell assays and an MOI of 0.5 for monocytic cell assays for 3 hrs. Unbound virus was then removed by washing the cells, followed by seeding the cells into a 96-well plate. The infected cells were cultured in the presence of a serial concentrations of the test compound for 5-7 days. The anti-HIV-1 efficacy was determined by testing for HIV-1 RT activity or p24 level in the cell culture supernatants. All assays were performed in duplicate. Zidovudine and/or lamivudine were used as controls in each experiment.
Activity of the compound A (−) against HIV-1 in various cells. Anti-HIV-1 activity of the compound A (−) were tested in different types of cells, including human peripheral […] cells (PBMCs), T-cell (MT-2 and MT-4) and monocytic cell (U937) lines. The compound A (−) had submicromolar EC50s against HIV-1IIIB in different types of cells tested (Table 2).

## Nc1nc(NC2CCC2)c2ncn([C@H]3CO[C@@H](CO)O3)c2n1 [Cmpd B (−), (−)-(2R,4R)-2-hydroxymethyl-4-(2′-amino-6′-cyclobutylamino-purine-9′-yl)-1,3-dioxolane]
[1]
  CC50 at 7 days: > 100 µM
PBMCs
  CC50 (μM) [^3H-]TTP incorporation in: PBMC: 80/90
[2]; DU-145 cells, Table 4, read-out: CC50 (μM) [^3H-]TTP incorporation in: U-145
  CC50 at 72 h: 200 µM
[2]; HT1080 cells, Table 4, read-out: CC50 (μM) [^3H-]TTP incorporation in: HT1080
  CC50 at 72 h: > 250 µM
[2]; HepG2 cells, Table 4, read-out: CC50 (μM) [^3H-]TTP incorporation in: HepG2
  CC50 at 72 h: > 250 µM
[2]; Molt-4 cells, Table 4, read-out: CC50 (μM) [^3H-]TTP incorporation in: Molt-4
  CC50 at 72 h: > 250 µM
[3]
  Mice (50 mg/kg/d): body weight gaining effect: No
[4]; male, plasma, iv 5 mg/kg
  half-life: 18.6 min
[4]; male, plasma, iv 5 mg/kg, read-out: AUC
  AUC: 5600 ng·h/mL
[4]; male, plasma, iv 5 mg/kg, read-out: Cmax
  Cmax: 13300 ng/mL
[4]; male, plasma, oral 20 mg/kg
  half-life: 72 min
[4]; male, plasma, oral 20 mg/kg, read-out: AUC
  AUC: 3080 ng·h/mL
[4]; male, plasma, oral 20 mg/kg, read-out: Cmax
  Cmax: 1120 ng/mL
[4]; oral 20 mg/kg
  Oral BA (%): 13.75%

## Nc1nc(N)c2ncn([C@H]3CO[C@@H](CO)O3)c2n1 [DAPD, (−)-β-D -2,6-diaminopurine dioxolane]
CBMCs
  CC50: > 100 µM
PBMCs; read-out: CC50 (μM) [^3H-]TTP incorporation in: PBMC
  CC50: > 500 µM
DU-145; read-out: CC50 (μM) [^3H-]TTP incorporation in: U-145
  CC50: > 500 µM
HSF
  CC50 (μM) [^3H-]TTP incorporation in: HSF: 500/350
HT1080; read-out: CC50 (μM) [^3H-]TTP incorporation in: HT1080
  CC50: > 500 µM
HepG-2; read-out: CC50 (μM) [^3H-]TTP incorporation in: HepG2
  CC50: ≥ 500 µM
Molt-4; read-out: CC50 (μM) [^3H-]TTP incorporation in: Molt-4
  CC50: > 500 µM
[4]; oral 20 mg/kg
  AUC: 1890 ng·h/mL
  Cmax: 1040 ng/mL
  Oral BA (%): 7.42%
  T1/2: 46.2 min
[5]; female rat, iv 10 mg/kg
  AUC: 357.9 µg·min/mL
  Cmax: 22100 ng/mL
  T1/2: 31.5 min
[5]; female rat, po 20 mg/kg
  AUC: 307.2 µg·min/mL
  Bioavailability (%): 43%
  Cmax: 2500 ng/mL
  T1/2: 31.3 min
  Tmax: 45 min
[5]; male rat, iv 10 mg/kg
  AUC: 271.2 µg·min/mL
  Cmax: 16200 ng/mL
  T1/2: 36.2 min
[5]; male rat, po 20 mg/kg
  AUC: 196.5 µg·min/mL
  Bioavailability (%): 36%
  Cmax: 1960 ng/mL
  T1/2: 34 min
  Tmax: 35 min

## Nc1nc2c(ncn2[C@H]2CO[C@@H](CO)O2)c(=O)[nH]1 [DXG, (−)-β-D -1,3-dioxolane guanine]
HIV-1IIIB
  EC50: 0.065 ± 0.039 µM
CBMCs
  CC50: > 100 µM
PBMCs
  CC50 (μM) [^3H-]TTP incorporation in: PBMC: >500/250
DU-145
  CC50 (μM) [^3H-]TTP incorporation in: U-145: >500/250
HSF; read-out: CC50 (μM) [^3H-]TTP incorporation in: HSF
  CC50: ≥ 500 µM
HT1080
  CC50 (μM) [^3H-]TTP incorporation in: HT1080: >500/250
HepG-2
  CC50 (μM) [^3H-]TTP incorporation in: HepG2: >500/250
Molt-4
  CC50 (μM) [^3H-]TTP incorporation in: Molt-4: >500/250
[4]; iv 5 mg/kg
  AUC: 5150 ng·h/mL
  Cmax: 29020 ng/mL
  T1/2: 37.2 min
[4]; oral 20 mg/kg
  AUC: 910 ng·h/mL
  Cmax: 270 ng/mL
  Oral BA (%): 4.43%
  T1/2: 147 min
